The text below walks through data of PMC6754136 (PLoS ONE, 2019).

The structures appear in SMILES notation. “Also recorded” adds a separate entry of the source.

The target in series [1] is purified recombinant human PDE5 (Homo sapiens, UniProt O76074). Kind of series: in vitro PDE5 inhibition assay measuring GMP production from cGMP (HPLC-UV-MS). To be noted: 1 nM PDE5 catalytic domain, 0.3 μM cGMP, 25 °C, 15 min; mean of at least three replicates ± SEM; read-out: IC50. The series is classed as biochemical. On the procedure: STRENDA guidelines were considered in the description of the following enzyme activity assays. PDE5 inhibition and kinetics assays were carried out according to the method of Kincaid and Manganiello [31] and Dell’Agli et al. 1 nM recombinant human PDE5 (catalytic domain consisting of amino acids 537–875, Abcam, ab125581) was pre-incubated with PDE5 inhibitors (synthesized in-house as described above or purchased from Selleck Chemicals) in 40 mM tris-hydrochloric acid, pH 7.8, containing 10 mM MgCl2. […]. PDE5 inhibitors were added to each reaction using a Hewlett-Packard D300 Digital Dispenser (Tecan). Maximum DMSO concentration was 0.1% of the final reaction volume for all samples. After incubation at 25 °C for 5 minutes to allow interaction between PDE5 and drugs, the reaction was started with the addition of 0.3 μM cGMP (Enzo Life Sciences, Inc.) and incubated at 25 °C for 15 minutes. The final reaction volume was 100 μL. Reactions were stopped with the addition of 100 μL of 0.1 M HCl and neutralized by adding 0.1 M NaOH until the pH was 7. […] The amount of GMP produced was measured by HPLC-UV-MS as described in the general procedures. Reaction mixture components were separated with a ramp gradient of solvent A and B run at a flow rate of 0.5 mL/min as follows: 0–4 minutes 0% B, 4–7 minutes 0–95% B, 7–8 minutes 95% B, 8–11.1 minutes 0% B. GMP was measured using selected reaction monitoring in positive mode for a centroid center mass of 152.
A calibration curve using known concentrations of GMP was generated using the HPLC-UV-MS method described above to quantify the absolute amount of GMP in each reaction (S13 Fig). The linear range was from 5.9 nM to 3 μM. The limit of detection (LOD), defined as the lowest concentration producing a detectable peak above background, was 0.1 nM. The lower limit of quantification (LLOQ), defined as the lowest concentration used to generate a standard curve with r^2 > 0.95, was 5.9 nM. The upper limit of quantification (ULOQ), defined as the highest concentration used to generate a standard curve with r^2 > 0.95, was 3 μM. A GMP calibration curve was generated with each individual run of the HPLC-UV-MS.
To measure the IC50 as a result of treatment with each icariin analog, the in vitro inhibition enzyme assay as described above was performed, and GMP levels were normalized to no-drug controls and multiplied by 100 to obtain the percent PDE5 activity. IC50 mean ± SEM values were determined by nonlinear-regression fitting of the percent PDE5 activity data using the [inhibitor] vs response–variable slope (four parameters) equation in Prism (version 7.0a and version 8). Top value was constrained to 100, all other parameters were unconstrained. To obtain the dose-response curves for visual confirmation of the best-fit line, we executed a nonlinear regression fitting using the log(inhibitor) vs. response—variable slope (four parameters) equation in Prism. […] AICc analysis (built into Prism) was used to confirm the best-fitting inhibition model. […] Inhibition models were also compared via visual inspection of the fit of the calculated curves on the Michaelis-Menten plots.

Series [2] has as its target recombinant human PDE5 (Homo sapiens, UniProt O76074). Kind of series: in vitro PDE5 kinetics assay (nonlinear regression, AICc model comparison). The class given is biochemical. On the procedure: guidelines were considered in the description of the following enzyme activity assays. […] For kinetics assays, 0.015, 0.05, and 0.2 μM of compounds 3 and 7 were used. […] Maximum DMSO concentration was 0.1% of the final reaction volume for all samples. […] The final reaction volume was 100 μL. Reactions were stopped with the addition of 100 μL of 0.1 M HCl and neutralized by adding 0.1 M NaOH until the pH was 7. […] Reaction mixture components were separated with a ramp gradient of solvent A and B run at a flow rate of 0.5 mL/min as follows: 0-4 minutes 0% B, 4-7 minutes 0-95% B, 7-8 minutes 95% B, 8-11.1 minutes 0% B. GMP was measured using selected reaction monitoring in positive mode for a centroid center mass of 152. […] Top value was constrained to 100, all other parameters were unconstrained. To obtain the dose-response curves for visual confirmation of the best-fit line, we executed a nonlinear regression fitting using the log(inhibitor) vs. response-variable slope (four parameters) equation in Prism. […] AICc analysis (built into Prism) was used to confirm the best-fitting inhibition model. […] Inhibition models were also compared via visual inspection of the fit of the calculated curves on the Michaelis-Menten plots.

Series [3] is described as follows: mitochondrial viability assay with resazurin. Conditions: human, four cell lines, 0.01–10 μM, even at the highest concentration tested (10 μM). The series is classed as cell-based, human. On the procedure: The human cell lines SH-SY5Y (SY5Y, ATCC CRL-2266), SK-MEL-5 (SKMEL-5, ATCC HTB-70), and NCI-H187 (H187, ATCC CRL-5804) were cultured in RPMI medium supplemented with 10% FBS and no antibiotics. These three cell lines were generously provided by the laboratory of Susan Lindquist via Luke Whitesell (currently at the University of Toronto, Toronto, ON, Canada). BJ-hTERT (described in [27], generously provided by Robert Weinberg, Whitehead Institute, Cambridge MA, USA) was cultured in 4:1 DMEM:M199 medium supplemented with 15% FBS and no antibiotics. All cell lines were grown and assayed at 37 °C, 5% CO2. All cell lines were screened for mycoplasma contamination by PCR (Mycoscope Detection Kit, Fisher Scientific) before use in assays.
For viability assays, cells were plated in black, clear bottom 384-well tissue culture-treated plates (Corning) and incubated overnight in the media described above but supplemented with 50 U/mL penicillin-streptomycin antibiotic (Life Technologies). Then, DMSO (no drug controls) and PDE5 inhibitors (0.01–10 μM; synthesized as described above or purchased from Selleck Chemicals) were added using a Hewlett-Packard D300 Digital Dispenser (Tecan) and incubated for 3 days. Maximum DMSO concentration was normalized to 0.1% of the total well volume for all wells. Resazurin (R & D Systems) was diluted 1:20 into each well and incubated for up to 4 hours. Fluorescence was read in a Tecan plate reader (excitation = 570 nm, emission = 585 nm). Wells treated with PDE5 inhibitors were normalized against control wells treated with DMSO to measure percent mitochondrial viability (100 = no effect on mitochondrial viability).

For orientation: IC50 means the point on the concentration scale where inhibition reaches its midpoint. What is called Ki is a measure of affinity in units of concentration, obtained from inhibition or displacement. Broadly, the viability is the share of living cells, or the viability signal relative to a control. Lower therefore signals more harm to the cells.

For `COc1ccc(-c2oc3c(CC=C(C)C)c(O)cc(O)c3c(=O)c2OCCCO)cc1` [Compound 7, 3-O-(3-Hydroxypropyl)-Icaritin], the IC50 in series [1] stood at 140 ± 60 nM. Besides, the Ki in series [2] was found to be 36 ± 7 nM. Besides, the Preferred model entry in series [2] (AICc comparison of competitive vs noncompetitive inhibition) and in series [2] (AICc comparison of competitive vs uncompetitive inhibition) was “Competitive inhibition” in each case. Further, in series [2] (AICc, compared to a noncompetitive or uncompetitive model), the “probability that the competitive inhibition model is correct” value is given as more than 99%. The “Probability it is correct (competitive inhibition)” value is given as more than 99.99% in series [2] (AICc, competitive vs noncompetitive inhibition) and more than 99.99% in series [2] (AICc, competitive vs uncompetitive inhibition). The mode of inhibition entry in series [2] (Lineweaver-Burk plot and AICc analysis) is listed as “competitive inhibition as the best fitting model; also recorded: partially competitive model”. The same compound yielded a viability at 3 days, 10 μM in series [3] of more than 70%.
